Here are results for one compound from publication PMC7180728, “Novel Anthraquinone Compounds Inhibit Colon Cancer Cell Proliferation via the Reactive Oxygen Species/JNK Pathway” (Molecules, 2020).

Values after ≈ are worked out from the molar mass of the structure shown. A value given as a limit tells only on which side of the number the result lay.

The test system of one assay is Bcl-2, Bcl-xL and Bax. The assay can be described thus: Western blot, Bcl-2 family proteins. To be noted: HCT116, western blot. In kind it is cell-based, human. On the procedure:
In addition, the expression of apoptosis-related proteins after 8a treatment was detected by western blot. Previous studies have shown that the Bcl-2 protein family is one of the most interesting oncogene-related proteins in programmed cell death. Therefore, we analyzed the levels of Bcl-2, Bcl-xL and Bax after 24 h of treatment with different concentrations (0, 10, 20, and 40 μg/mL) 8a. […] Moreover, the phosphorylation levels of Bcl-2 and Bcl-xL increased with increasing 8a concentration.
The expression of signaling pathway-related proteins was detected by western blot analysis. Cell (1 × 10^6) were plated in 90-mm dishes and treated with 8a for 24 h. The cells were treated with NAC in the same way as in step 4.7. Resuspend the cells in Buffer A (1 mM EDTA, 1 mM PMSF, 0.28 μg/mL apotinin, 50 μg/mL leupeptin, 7 μg/mL pepstain A) and transferred to a 1 mL glass homogenizer and pull up and down 30 times in an ice bath. Cells were collected and centrifuged (1000 g × 10 min, 4 °C). The obtained supernatant and precipitate were the crude cytoplasm and mitochondria, respectively. The cytosolic fraction was transferred to an ultra-ion tube and centrifuged (100,000g × 1 hr, 4 °C), and the resulting supernatant was the purified cytosolic fraction. The mitochondrial pellet was resuspended in Buffer B (1mM EGTA, 1mM PMSF, 0.28 μg/mL apotinin, 50 μg/mL leupeptin, 7 μg/mL pepstain A), centrifuged (10,000g × 10 min, 4 °C), and repeated 3 times. The mitochondria pellet was lysed in cell lysate buffer (1% NP-40, 2 μg/mL aprotinin, 2 μg/mL leupeptin, 1mM EDTA, 1mM Na vanadate). Protein concentrations in the supernatant were determined by using a Minbio BCA protein assay kit. Protein were separated by SDS-PAGE and transferred to a PVDF membrane. The membrane was blocked, and incubated with primary detection antibodies overnight at 4 °C. After washing three times with TBS-T, the membranes were incubated with the secondary detection antibody. […]
Background: In western blotting, separated proteins are transferred to a membrane and probed.

Another assay deals with QBC939. As to the kind of experiment: MTT cell proliferation assay, QBC939. In kind it is cell-based. To be noted: Homo sapiens, QBC939 cholangiocarcinoma, 48 h. Here is the method: (§1) The effects of the synthesized amide anthraquinone derivatives on the proliferative activity of eight human cancerous cell lines (EC9706, MCF-7, SGC-7901, HepG2, QBC939, HeLa, HCT116 and SW480) in addition to two normal human cell lines (colorectal FHC and liver HL7702) were evaluated using the standard MTT assay.
(§2) The human esophageal cancer cell line EC9706 was obtained from Cancer Hospital and Institute by Prof. Ming Rong Wang, Chinese Academy Medical of Sciences. The human colorectal carcinoma cell lines HCT116 and SW480, hepatoma cell line HepG2, cervical carcinoma cell line HeLa, breast cancer cell line MCF-7, gastric cancer cell line SGC-7901, cholangiocarcinoma cell line QBC939, normal fetal colon cell line FHC and liver cell line HL-7702 were obtained from the Cell Bank of the Shanghai Chinese Academy of Sciences. All cells were cultured in RPMI 1640 medium containing 100 U/mL penicillin and streptomycin and 10% fetal bovine serum and maintained at 37°C under a 5% CO2 atmosphere.
(§3) We analyzed the inhibitory effects of eight anthraquinone-amino acid derivatives on the proliferation of eight tumor cell lines and two normal cell lines in vitro using MTT assays. Cells were added to a 96-well plate with (5,000 cells per well in 100 µL RPMI-1640 medium). Cells were treated with different concentrations (10–100 μg/mL) of 8a–8h for 48 h and then incubated with 20 μL MTT (5 mg/mL) for another 4 h at 37°C. DMSO (150 μL) was then added to each well to dissolve the formazan crystals. The absorbance of each well was read at 490 nm on a microtiter plate ELISA reader. The mean values were obtained from a minimum of three parallel experiments. IC50 values were calculated.
(Tetrazolium dyes change colour on reduction, which living cells bring about.)

Another assay deals with HeLa. The assay can be described thus: MTT cell proliferation assay, HeLa. The assay is classed as cell-based. To be noted: Homo sapiens, HeLa cervical cancer, 48 h. On the procedure: as §1, §2, §3
Assay [1] concerns intracellular ROS in HCT116 cells. As to the kind of experiment: Detection of ROS by DCFH-DA, flow cytometry. The assay is classed as cell-based, human. To be noted: compared to DMSO-treated control. Here is the method: Intracellular ROS are key factors in the activation of many signaling pathways, involved in a variety of biological functions including apoptosis and necrosis. High levels of ROS are capable of inducing tumor cell apoptosis. We evaluated the ability of the compounds to induce ROS by flow cytometric analysis of the fluorescent probe DCFH-DA. […] Next, we investigated ROS production before and after induction with 8a and NAC (N-acetyl-L-cysteine).
Cells were added to a 6-well plate (1 × 10^4/well) and incubated for 24 h to allow adherence. Set 0.1% DMSO as the control group, 8a as the treatment group, NAC as the treatment group, 8a + NAC as the treatment group. Among them, in the 8a + NAC treatment group, 8a was added after 5 mM NAC treatment for 1 h. Cells that had been treated for 24 h were collected. The cells were then washed three times with PBS and incubated with 10 μM DCFH-DA for 30 min in the dark. ROS levels were analyzed by flow cytometry.

A further assay concerns SW480. The assay can be described thus: MTT cell proliferation assay, SW480. In kind it is cell-based. To be noted: Homo sapiens, SW480 colon cancer, 48 h. On the procedure:
as §1, §2, §3

The subject of the next assay is HL-7702. The assay can be described thus: MTT cell proliferation assay, normal liver cells HL-7702. The assay is classed as cell-based. To be noted: L02, HL-7702 normal human hepatocyte, 48 h. Here is the method: as §1, §2, §3
Another assay concerns cytochrome c. As to the kind of experiment: Western blot, cytochrome c in cytoplasm and mitochondria. The assay is classed as cell-based, human. To be noted: 10 or 20 μg/mL, 24 h, HCT116, western blot. Here is the method: Decreased mitochondrial membrane potential is a hallmark of early cell apoptosis, and a decrease in mitochondrial membrane potential leads to the release of certain mitochondrial proteins, such as cytochrome c, which mediate apoptosis. Therefore, we examined changes in mitochondrial membrane potential by flow cytometry. HCT116 cells were treated with 8a (10 or 20 μg/mL) for 24 h and then stained with 2 μg/mL JC-1 for 30 min prior to flow cytometric analysis. Green /orange fluorescence ratio of JC-1, compare with control, is 200% and 494.4%, respectively (Figure 8E,F). […] During apoptosis, mitochondrial cytochrome C is released into the cytoplasm and triggers the activation cascade of caspase. HCT116 cells were collected after 8a treatment, cytoplasmic protein and mitochondrial protein were extracted. The levels of cytochrome c in the cytoplasm and mitochondria were detected by Western blotting. After treatment of HCT116 cells with 8a (10 or 20 μg/mL) for 24 h, cytoplasmic levels of cytochrome c increased, while the levels in the mitochondria decreased.
The expression of signaling pathway-related proteins was detected by western blot analysis. Cell (1 × 10^6) were plated in 90-mm dishes and treated with 8a for 24 h. The cells were treated with NAC in the same way as in step 4.7. […] Protein concentrations in the supernatant were determined by using a Minbio BCA protein assay kit. […]

The next assay has as its system MCF-7. As to the kind of experiment: MTT cell proliferation assay, MCF-7. In kind it is cell-based. To be noted: Homo sapiens, MCF7, MCF-7 breast cancer, 48 h. On the procedure:
as §1, §2, §3

Broadly, the IC50 is the concentration that inhibits the measured activity by half. Read a high IC50 as a need for much substance. Consider `CC(C)CC(NC(=O)c1ccc2c(c1[N+](=O)[O-])C(=O)c1ccccc1C2=O)C(=O)O` (centres unmarked) [Compound 8a, N-[(9,10-dihydro-1-nitro-9,10-dioxo-2-anthracenyl)carbonyl-leucine]], for which, in the assay with Bcl-2, Bcl-xL and Bax (0, 10, 20, 40 μg/mL, 24 h), the Bax expression result was “increased”. In addition, in the assay on Bcl-2, Bcl-xL and Bax (0, 10, 20, 40 μg/mL, 24 h), the “levels of Bcl-2 and Bcl-xL” value is “gradually decreased”. Moreover, the “phosphorylation levels of Bcl-2 and Bcl-xL” value with Bcl-2, Bcl-xL and Bax (with increasing 8a concentration) was “increased”. Further, the IC50 in the assay on QBC939 is 43.13 ± 0.05 µg/mL (≈ 105 µM); in the assay with HeLa, 29.75 ± 0.15 µg/mL (≈ 72.5 µM); in the assay on SW480, 31.09 ± 0.1 µg/mL (≈ 75.8 µM); with HL-7702, greater than 1000 µg/mL; in the assay with MCF-7, 33.34 ± 0.28 µg/mL (≈ 81.2 µM). Besides, in assay [1], the “ROS levels (in words)” value is on record as “increase ROS levels in a dose-dependent manner”. Moreover, the “cytochrome c levels in the mitochondria” value with cytochrome c is recorded as “decreased”. The “cytoplasmic levels of cytochrome c” value with cytochrome c is given as “increased”.
